This assay deals with T1, crosslinked smooth muscle actomyosin (chicken gizzard smooth muscle myosin subfragment-1 crosslinked to cardiac or skeletal actin) (Gallus gallus, UniProt P10587).
T1 construct: chicken gizzard smooth muscle myosin subfragment-1; from tissue; host or cells: chicken gizzard
Briefly: Lead optimization pyruvate kinase/horseradish peroxidase/pyruvate oxidase-coupled ATPase assay (compound dose response). As to conditions: read-out: IC50 Arithmetic Mean. The format is biochemical. The protocol:
Screening assays were performed using a pyruvate kinase and lactate dehydrogenase-coupled ATPase assay containing the following reagents: Potassium PIPES (50 mM), MgCl2 (3 mM), KCl (100 mM), ATP (0.15 mM), DTT (1 mM), BSA (0.1 mg/ml), NADH (0.5 mM), PEP (1.5 mM), pyruvate kinase (4 U/ml), lactate dehydrogenase (8 U/ml), and antifoam (50 ppm) (concentrations expressed are final assay concentrations). The pH was adjusted to 6.80 at 22° C. by addition of potassium hydroxide. Lead optimization assays were performed with a more sensitive pyruvate kinase/horseradish peroxidase/pyruvate oxidase-coupled ATPase assay containing the following reagents: Potassium PIPES (12 mM), MgCl2 (2 mM), KCl (100 mM), ATP (0.15 mM), BSA (0.05 mg/ml), potassium phosphate (2 mM), amplex red (0.1 mM), PEP (0.1 mM), pyruvate kinase (4 U/ml), horseradish peroxidase (0.5 U/ml), pyruvate oxidase (0.5 U/ml), and antifoam (50 ppm) (concentrations expressed are final assay concentrations). The pH was adjusted to 7.00 at 22° C. by addition of potassium hydroxide.
The protein components specific to this assay are chicken gizzard smooth muscle myosin subfragment-1 that has been chemically crosslinked to either cardiac or skeletal actin using an excess of 1-Ethyl-3-[3-dimethylaminopropyl]carbodiimide hydrochloride and N-hydroxysuccinimide. The exact concentration of the crosslinked smooth muscle myosin in the assay is determined empirically, by titration to achieve a desired rate of ATP hydrolysis. The concentration varies between protein preparations due to variations in the fraction of active molecules in each preparation.
Compound dose response assays are performed by first preparing a dilution series of test compound, each with an assay mixture containing potassium PIPES, MgCl2, KCl, ATP, BSA, potassium phosphate, amplex red, PEP, crosslinked smooth muscle actomyosin (subfragment-1), antifoam, and water. The assay is started by adding an equal volume of solution containing potassium Pipes, MgCl2, KCl, BSA, potassium phosphate, pyruvate kinase, horseradish peroxidase, pyruvate oxidase, antifoam, and water. ATP hydrolysis is monitored by measuring the fluorescence of amplex red (excitation at 480 nm, emission at 615 nm). The resulting dose response curve is fit by the 4 parameter equation y=Bottom+((Top-Bottom)/(1+((IC50/X)^Hill))). The IC50 is defined as the concentration at which ATPase activity is midway between the top and bottom of the dose response curve.

By IC50 is commonly meant the concentration at which inhibition is half-maximal. With `CCc1ccc(NC(=O)OCC2(C(=O)NCc3ccccc3Cl)CCN(C(=O)[C@H](N)CO)CC2)cc1` [(1-((2R)-2-amino-3-hydroxypropanoyl)-4-{[N-(4-ethylphenyl)carbamoyloxy]methyl}(4-piperidyl))-N-[(2-chlorophenyl)methyl]carboxamide], the IC50 was 164 nM.

`CCc1ccc(NC(=O)OCC2(C(=O)NCc3ccccc3Cl)CCN(C(=O)[C@@H](C)N)CC2)cc1` [(1-((2R)-2-aminopropanoyl)-4-{[N-(4-ethylphenyl)carbamoyloxy]methyl}(4-piperidyl))-N-[(2-chlorophenyl)methyl]carboxamide]: the IC50 was found to be 255 nM.

Turning to `CCc1ccc(NC(=O)OCC2(C(=O)NCc3ccccc3Cl)CCCN(C(=O)[C@@H](N)CO)C2)cc1` (stereo partly drawn) [(1-((2S)-2-amino-3-hydroxypropanoyl)-3-{[N-(4-ethylphenyl)carbamoyloxy]methyl}(3-piperidyl))-N-[(2-chlorophenyl)methyl]carboxamide], the IC50 turned out to be 1480 nM.

With `CCc1ccc(NC(=O)OCC2(C(=O)NCc3ccccc3Cl)CCN(C(=O)[C@@H](N)CO)CC2)cc1` [(1-((2S)-2-amino-3-hydroxypropanoyl)-4-{[N-(4-ethylphenyl)carbamoyloxy]methyl}(4-piperidyl))-N-[(2-chlorophenyl)methyl]carboxamide], the IC50 came out at 125 nM.

Regarding `CCc1ccc(NC(=O)OCC2(C(=O)NCc3ccccc3Cl)CCN(C(=O)[C@H](C)N)CC2)cc1` [(1-((2S)-2-aminopropanoyl)-4-{[N-(4-ethylphenyl)carbamoyloxy]methyl}(4-piperidyl))-N-[(2-chlorophenyl)methyl]carboxamide], the IC50 was found to be 724 nM.

Turning to `CCc1ccc(NC(=O)OCC2(C(=O)NCc3ccccc3Cl)CCN(C(=O)C3CCN3)CC2)cc1` (stereo not shown) [(1-(azetidin-2-ylcarbonyl)-4-{[N-(4-ethylphenyl)carbamoyloxy]methyl}(4-piperidyl))-N-[(2-chlorophenyl)methyl]carboxamide], the IC50 came to 221 nM.

On to `CCc1ccc(NC(=O)OCC2(C(=O)NCc3ccccc3Cl)CCN(S(=O)(=O)CCN)CC2)cc1` [(1-[(2-aminoethyl)sulfonyl]-4-{[N-(4-ethylphenyl)carbamoyloxy]methyl}(4-piperidyl))-N-[(2-chlorophenyl)methyl]carboxamide], for which the IC50 turned out to be 274 nM.

Take `CCc1ccc(NC(=O)OCC2(C(=O)NCc3ccccc3Cl)CCN(C(C)=O)CC2)cc1` [(1-acetyl-4-{[N-(4-ethylphenyl)carbamoyloxy]methyl}(4-piperidyl))-N-[(2-chlorophenyl)methyl]carboxamide]: the IC50 is 418 nM.

Take `CCc1ccc(NC(=O)OCC2(C(=O)NCc3ccccc3C#N)CCN(C(=O)CNC(=O)OC(C)(C)C)CC2)cc1` [(1-{2-[(tert-butoxy)carbonylamino]acetyl}-4-{[N-(4-ethylphenyl)carbamoyloxy]methyl}(4-piperidyl))-N-[(2-cyanophenyl)methyl]carboxamide]: the IC50 amounted to 7690 nM.

As to `CCc1ccc(NC(=O)OCC2(C(=O)NCc3ccccc3OC)CCN(C(=O)CNC(=O)OC(C)(C)C)CC2)cc1` [(1-{2-[(tert-butoxy)carbonylamino]acetyl}-4-{[N-(4-ethylphenyl)carbamoyloxy]methyl}(4-piperidyl))-N-[(2-methoxyphenyl)methyl]carboxamide], the IC50 came to 11300 nM.

With `CCc1ccc(NC(=O)NC[C@@H]2CCCN2C(=O)OCc2ccccc2Cl)cc1` [(2-chlorophenyl)methyl (2S)-2-({[(4-ethylphenyl)amino]carbonylamino}methyl)pyrrolidinecarboxylate], the IC50 worked out at 3530 nM.

As to `CCc1ccc(NC(=O)OCCOC(=O)NCc2ccccc2Cl)cc1` [(2-{N-[(2-chlorophenyl)methyl]carbamoyloxy}ethoxy)-N-(4-ethylphenyl)carboxamide], the IC50 came to 3690 nM.

For the compound `CCc1ccc(NC(=O)OCC2CN(C(=O)CN)CCN2C(=O)NCc2ccccc2Cl)cc1` (stereo not shown) [(4-(2-aminoacetyl)-2-{[N-(4-ethylphenyl)carbamoyloxy]methyl}piperazinyl)-N-[(2-chlorophenyl)methyl]carboxamide], the half-inhibitory concentration (IC50) stood at 2380 nM.

Source of the values: patent publication US8071625B2, “Certain chemical entities, compositions, and methods” (Cytokinetics, Inc., priority 2006, dated 2011).
